Broadly, the DC50 is the concentration at which degradation of the target reaches its halfway point. Higher therefore signals degradation only at high concentration. The IC50 is the concentration that gives 50% inhibition. Read a low IC50 as greater potency in that assay. The term Dmax denotes the largest share of the target that was removed.

Consider 20 compounds from US20240190874A1, “SMALL MOLECULE DEGRADERS OF ANDROGEN RECEPTOR” (THE REGENTS OF THE UNIVERSITY OF MICHIGAN, priority 2021, published 2024).

Each structure is given as a SMILES string. Where two headings read alike, the source gives them in different places.

Common to all, as to format: cell-based
The target of one test is T1, AR (Homo sapiens, UniProt P10275).
T1 construct: Degradation of AR; Cellular potency; host or cells: VCaP cells
T1 sequence (P10275 1-920): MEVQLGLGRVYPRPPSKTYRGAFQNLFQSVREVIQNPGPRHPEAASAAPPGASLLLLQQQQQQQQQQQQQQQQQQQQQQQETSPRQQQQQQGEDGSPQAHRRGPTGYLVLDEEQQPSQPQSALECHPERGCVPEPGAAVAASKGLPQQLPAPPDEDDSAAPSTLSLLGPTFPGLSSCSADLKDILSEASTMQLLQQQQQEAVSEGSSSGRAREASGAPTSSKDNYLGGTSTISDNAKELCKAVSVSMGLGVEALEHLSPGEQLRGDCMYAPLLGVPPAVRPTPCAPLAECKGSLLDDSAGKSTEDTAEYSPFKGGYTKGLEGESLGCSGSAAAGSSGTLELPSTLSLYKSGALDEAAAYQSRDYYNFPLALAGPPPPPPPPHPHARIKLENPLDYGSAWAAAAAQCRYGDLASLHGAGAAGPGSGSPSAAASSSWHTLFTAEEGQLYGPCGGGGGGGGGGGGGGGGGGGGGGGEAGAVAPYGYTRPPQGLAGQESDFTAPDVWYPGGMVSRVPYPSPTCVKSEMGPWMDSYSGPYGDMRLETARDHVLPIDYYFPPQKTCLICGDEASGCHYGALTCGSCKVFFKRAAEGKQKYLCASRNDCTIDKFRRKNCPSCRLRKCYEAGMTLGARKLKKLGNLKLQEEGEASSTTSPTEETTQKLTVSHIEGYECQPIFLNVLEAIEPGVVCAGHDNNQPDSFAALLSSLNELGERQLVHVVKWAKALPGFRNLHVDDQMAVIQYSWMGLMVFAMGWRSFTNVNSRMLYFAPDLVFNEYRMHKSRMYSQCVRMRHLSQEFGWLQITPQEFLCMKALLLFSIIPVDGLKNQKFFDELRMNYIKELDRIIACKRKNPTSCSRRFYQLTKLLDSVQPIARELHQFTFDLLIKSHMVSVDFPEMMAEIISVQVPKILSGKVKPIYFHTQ
The test is described as follows: Degradation of AR in VCaP cells. The settings on record: VCaP cells; for Dmax: VCaP. The method, then: (§1) Biological Assays. LNCaP and VCaP cells used were purchased from American Type Culture Collection (ATCC). LNCaP were grown in RPMI 1640 (Invitrogen) and VCaP cells were grown in DMEM with Glutamax (Invitrogen). All of the cells were supplemented with 10% fetal bovine serum (Invitrogen) at 37° C. in a humidified 5% CO2 incubator.

A further test concerns LNCaP cells. The test is described as follows: Cellular potency (IC50) in LNCaP cells. As for the experimental part: as §1
Another test has as its system VCaP cells. The test is described as follows: Cellular potency (IC50) in VCaP cells. The method, then: as §1

Turning to `C[C@H]1CC2(CCN(c3ncc(CN4CCN(C5CN(c6ccc7c(c6)C(=O)N(C6CCC(=O)NC6=O)C7=O)C5)CC4)cn3)CC2)CN1c1ccc(C#N)c(Cl)c1` (some centres unmarked) [compound 183], on AR, the DC50 was below 0.001 µM. Further, the IC50 in the test with LNCaP cells (Homo sapiens, LNCaP) was below 0.1 µM; in the test with VCaP cells (Homo sapiens, VCaP) it was below 0.1 µM.

In turn, `C=C1CCC(N2C(=O)c3ccc(N4CCC(CN5CCN(c6ccc(N7CCC8(CC7)C[C@H](C)N(c7ccc(C#N)c(Cl)c7)C8)c(F)c6)CC5)CC4)cc3C2=O)C(=O)N1` (some centres unmarked) [compound 38] had a Dmax at AR above 90%. Moreover, the IC50 in the test on LNCaP cells (Homo sapiens, LNCaP) was below 0.01 µM; in the test with VCaP cells (Homo sapiens, VCaP), below 0.01 µM.

On AR, `C[C@H]1CC2(CCN(c3cnc(N4CCN(CC5CCN(c6ccc7c(c6)C(=O)N(C6CCC(=O)NC6=O)C7=O)CC5)CC4)nc3)CC2)CN1c1ccc(C#N)c(Cl)c1` (some centres unmarked) [compound 83] had a DC50 below 0.001 µM and a Dmax above 90%. Besides, the IC50 in the test on LNCaP cells (Homo sapiens, LNCaP) was below 0.01 µM. This compound also registered an IC50 in the test with VCaP cells (Homo sapiens, VCaP) below 0.01 µM.

For `C[C@H]1CC2(CCN(c3ccc(S(=O)(=O)C4CCN(C(=O)CN5Cc6cc7c(cc6C5)C(=O)N(C5CCC(=O)NC5=O)C7=O)CC4)cc3)CC2)CN1c1ccc(C#N)c(Cl)c1` (some centres unmarked) [compound 152], the DC50 on AR was below 0.001 µM. Moreover, the IC50 was below 0.1 µM with LNCaP cells (Homo sapiens, LNCaP) and below 0.1 µM in the test on VCaP cells (Homo sapiens, VCaP).

With `C[C@H]1CC2(CCN(c3ccc(CN4CCN(C5CN(c6ccc7c(c6)C(=O)N(C6CCC(=O)NC6=O)C7=O)C5)CC4)c(F)c3)CC2)CN1c1ccc(C#N)c(Cl)c1` (some centres unmarked) [compound 40], at AR, the DC50 is below 0.01 µM and the “Degradation of AR in VCaP cells Dmax” value is “A (A = >90%)”. The same compound had an IC50 with LNCaP cells below 0.1 µM. The compound also had an IC50 in the test with VCaP cells below 0.1 µM.

For `C[C@H]1CC2(CCN(c3ccc(S(=O)(=O)C4CCN(CC5CN(c6ccc7c(c6)C(=O)N(C6CCC(=O)NC6=O)C7=O)C5)CC4)cc3)CC2)CN1c1ccc(C#N)c(Cl)c1` (some centres unmarked) [compound 164], the DC50 on AR is below 0.001 µM. For the same compound, the IC50 in the test with LNCaP cells (Homo sapiens, LNCaP) was below 0.1 µM; with VCaP cells (Homo sapiens, VCaP), below 0.01 µM.

`C[C@H]1CC2(CCN(c3ccc(N4CCN(C5CN(c6ccc7c(c6)C(=O)N(C6CCC(=O)NC6=O)C7=O)C5)CC4)nc3)CC2)CN1c1ccc(C#N)c(Cl)c1` (some centres unmarked) [compound 36] registered a DC50 at AR below 0.001 µM. This compound showed a maximal degradation (Dmax) on AR above 90%. The IC50 with LNCaP cells (Homo sapiens, LNCaP) is below 0.01 µM; with VCaP cells (Homo sapiens, VCaP) it was below 0.01 µM.

As for `C[C@H]1CC2(CCN(c3ccc(OC4CCN(C5CN(c6cc7c(cc6F)C(=O)N(C6CCC(=O)NC6=O)C7=O)C5)CC4)cn3)CC2)CN1c1ccc(C#N)c(Cl)c1` (some centres unmarked) [compound 132], on AR, the 50% degradation concentration (DC50) is below 0.001 µM and the Dmax is above 90%. In the test with LNCaP cells (Homo sapiens, LNCaP), this compound showed an IC50 below 0.01 µM. Besides, the concentration for half-maximal inhibition (IC50) in the test with VCaP cells (Homo sapiens, VCaP) is below 0.01 µM.

For the compound `C[C@H]1CC2(CCN(c3cnc(N4CCN(CC5CN(c6ccc7c(c6)C(=O)N(C6CCC(=O)NC6=O)C7=O)C5)CC4)nc3)CC2)CN1c1ccc(C#N)c(Cl)c1` (some centres unmarked) [compound 82], the half-maximal degradation concentration (DC50) on AR is below 0.001 µM. Also, the Dmax at AR is above 90%. In addition, the IC50 was below 0.01 µM in the test with LNCaP cells (Homo sapiens, LNCaP) and below 0.01 µM in the test with VCaP cells (Homo sapiens, VCaP).

In the case of `C[C@H]1CC2(CCN(c3ccc(CN4CCN(C5CN(c6ccc7c(c6)C(=O)N(C6CCC(=O)NC6=O)C7=O)C5)CC4)cc3)CC2)CN1c1ccc(C#N)c(Cl)c1` (some centres unmarked) [compound 5], on AR, the half-maximal degradation concentration (DC50) is below 0.001 µM and the maximal degradation (Dmax) was above 90%. The same compound yielded an IC50 in the test on LNCaP cells (Homo sapiens, LNCaP) below 0.01 µM. Also, the IC50 in the test on VCaP cells (Homo sapiens, VCaP) is below 0.01 µM.

`C[C@H]1CC2(CCN(c3ccc(C4CCN(CC5CCN(c6ccc7c(c6)C(=O)N(C6CCC(=O)NC6=O)C7=O)CC5)CC4)cn3)CC2)CN1c1ccc(C#N)c(Cl)c1` (some centres unmarked) [compound 44] gave a DC50 at AR below 0.001 µM. Moreover, at AR, the maximal degradation (Dmax) was above 90%. In addition, the 50% inhibitory concentration (IC50) in the test on LNCaP cells (Homo sapiens, LNCaP) was below 0.01 µM; in the test with VCaP cells (Homo sapiens, VCaP), below 0.01 µM.

Regarding `C[C@H]1CC2(CCN(c3ccc(N4CCC(CN5CCN(c6ccc7c(c6)C(=O)N(C6CCC(=O)NC6=O)C7=O)CC5)CC4)nc3)CC2)CN1c1ccc(C#N)c(Cl)c1` (some centres unmarked) [compound 53], on AR, the DC50 is below 0.01 µM and the Dmax was above 90%. This compound also showed an IC50 with LNCaP cells (Homo sapiens, LNCaP) below 0.1 µM. The same compound had a half-inhibitory concentration (IC50) with VCaP cells (Homo sapiens, VCaP) below 0.1 µM.

`C[C@H]1CC2(CCN(c3ccc(S(=O)(=O)C4CN(C(=O)CN5Cc6cc7c(cc6C5)C(=O)N(C5CCC(=O)NC5=O)C7=O)C4)cc3)CC2)CN1c1ccc(C#N)c(Cl)c1` (some centres unmarked) [compound 149]: on AR, the DC50 is below 0.001 µM. Also, the IC50 in the test on LNCaP cells (Homo sapiens, LNCaP) is below 0.01 µM; with VCaP cells (Homo sapiens, VCaP), below 0.1 µM.

On AR, `C[C@H]1CC2(CCN(c3ccc(N4CCN(C5CN(c6ccc7c(c6)C(=O)N(C6CCC(=O)NC6=O)C7=O)C5)CC4)cc3F)CC2)CN1c1ccc(C#N)c(Cl)c1` (some centres unmarked) [compound 39] displayed a half-maximal degradation concentration (DC50) below 0.001 µM and a Dmax above 90%. The 50% inhibitory concentration (IC50) in the test with LNCaP cells (Homo sapiens, LNCaP) is below 0.01 µM. The same compound showed an IC50 in the test on VCaP cells (Homo sapiens, VCaP) below 0.01 µM.

Compound `C[C@H]1CC2(CCN(c3ccc(CC4CCN(CC5CCN(c6ccc7c(c6)C(=O)N(C6CCC(=O)NC6=O)C7=O)CC5)CC4)cc3)CC2)CN1c1ccc(C#N)c(Cl)c1` (some centres unmarked) [compound 26] registered a DC50 at AR below 0.001 µM. On AR, this compound registered a Dmax above 90%. Also, the IC50 in the test on LNCaP cells (Homo sapiens, LNCaP) is below 0.01 µM; in the test with VCaP cells (Homo sapiens, VCaP) it was below 0.01 µM.

As for `C[C@H]1CC2(CCN(c3ccc(N4CCC(N(C)C5CN(c6ccc7c(c6)C(=O)N(C6CCC(=O)NC6=O)C7=O)C5)CC4)nn3)CC2)CN1c1ccc(C#N)c(Cl)c1` (some centres unmarked) [compound 125], the DC50 on AR is below 0.01 µM. The Dmax at AR was above 90%. Also, the IC50 in the test with LNCaP cells (Homo sapiens, LNCaP) was below 0.01 µM; in the test with VCaP cells (Homo sapiens, VCaP) it was below 0.01 µM.

With `C[C@H]1CC2(CCN(c3ccc(N4CCC(CN5Cc6cc7c(cc6C5)C(=O)N(C5CCC(=O)NC5=O)C7=O)CC4)cn3)CC2)CN1c1ccc(C#N)c(Cl)c1` (some centres unmarked) [compound 52], the DC50 on AR is below 0.01 µM. Moreover, on AR, the maximal degradation (Dmax) was above 90%. Further, the IC50 in the test with LNCaP cells (Homo sapiens, LNCaP) was below 0.1 µM; in the test on VCaP cells (Homo sapiens, VCaP), below 0.1 µM.

As to `C[C@H]1CC2(CCN(c3ccc(N4CCC(OC5CN(c6ccc7c(c6)C(=O)N(C6CCC(=O)NC6=O)C7=O)C5)CC4)nc3)CC2)CN1c1ccc(C#N)c(Cl)c1` (some centres unmarked) [compound 91], on AR, the DC50 was below 0.001 µM and the Dmax was above 90%. The IC50 in the test on LNCaP cells (Homo sapiens, LNCaP) is below 0.01 µM. Besides, the IC50 with VCaP cells (Homo sapiens, VCaP) was below 0.01 µM.

On AR, `C[C@H]1CC2(CCN(c3ccc(OC4CN(C5CN(c6ccc7c(c6)C(=O)N(C6CCC(=O)NC6=O)C7=O)C5)C4)nn3)CC2)CN1c1ccc(C#N)c(Cl)c1` (some centres unmarked) [compound 73] displayed a DC50 below 0.1 µM and a Dmax of 50 to 70%. Besides, the IC50 in the test on LNCaP cells (Homo sapiens, LNCaP) was below 1 µM. For the same compound, in the test on VCaP cells (Homo sapiens, VCaP), the IC50 was below 1 µM.

`C[C@H]1CC2(CCN(c3ccc(CN4CCN(C5CCN(c6ccc7c(c6)C(=O)N(C6CCC(=O)NC6=O)C7=O)CC5)CC4)cn3)CC2)CN1c1ccc(C#N)c(Cl)c1` (some centres unmarked) [compound 154] showed a DC50 on AR below 0.001 µM. Besides, the IC50 was below 0.01 µM with LNCaP cells (Homo sapiens, LNCaP) and below 0.1 µM in the test on VCaP cells (Homo sapiens, VCaP).
